From US20250098679A1, “HERBICIDAL PYRIDONE DERIVATIVES” (SYNGENTA CROP PROTECTION AG, priority 2021, published 2025)

Assays:
Assay type in all cases: in vivo
Conditions in all cases: evaluated after 13 days
Setaria faberi (SETFA) [1] = test: Post-emergence Test, Setaria faberi (SETFA); parameters: key to percentage damage caused to the plant, SETFA (five-point scale): 5=81-100%, 4=61-80%, 3=41-60%, 2=21-40%, 1=0-20% damage
Method in brief: (§1)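 Scores are percentage plant damage on a 1–5 scale (1=0-20%, 2=21-40%, 3=41-60%, 4=61-80%, 5=81-100%), read 13 days after treatment. Pots received a spray at 1000 g/ha unless otherwise stated, formulated in acetone/water (50:50) containing 0.5% Tween 20.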

Setaria faberi (SETFA) [2] = test: Pre-emergence Test, Setaria faberi (SETFA)
[3] = system: Echinochloa crus-galli (ECHCG); test: Post-emergence Test, Echinochloa crus-galli (ECHCG); parameters: key to percentage damage caused to the plant, ECHCG (five-point scale): 5=81-100%, 4=61-80%, 3=41-60%, 2=21-40%, 1=0-20% damage
Method in brief: as §1

Zea mays (ZEAMX) [4] = test: Post-emergence Test, Zea mays (ZEAMX); parameters: key to percentage damage caused to the plant, ZEAMX (five-point scale): 5=81-100%, 4=61-80%, 3=41-60%, 2=21-40%, 1=0-20% damage
Method in brief: as §1

[5] = system: Echinochloa crus-galli (ECHCG); test: Pre-emergence Test, Echinochloa crus-galli (ECHCG)
[6] = system: Ipomoea hederacea (IPOHE); test: Post-emergence Test, Ipomoea hederacea (IPOHE); parameters: key to percentage damage caused to the plant, IPOHE (five-point scale): 5=81-100%, 4=61-80%, 3=41-60%, 2=21-40%, 1=0-20% damage
Method in brief: as §1

[7] = system: Amaranthus retoflexus (AMARE); test: Pre-emergence Test, Amaranthus retoflexus (AMARE)
Zea mays (ZEAMX) [8] = test: Pre-emergence Test, Zea mays (ZEAMX)
[9] = system: Amaranthus retoflexus (AMARE); test: Post-emergence Test, Amaranthus retoflexus (AMARE); parameters: key to percentage damage caused to the plant, AMARE (five-point scale): 5=81-100%, 4=61-80%, 3=41-60%, 2=21-40%, 1=0-20% damage
Method in brief: as §1

[10] = system: Amaranthus palmeri (AMAPA); test: Pre-emergence Test, Amaranthus palmeri (AMAPA)
[11] = system: Ipomoea hederacea (IPOHE); test: Pre-emergence Test, Ipomoea hederacea (IPOHE)
[12] = system: Amaranthus palmeri (AMAPA); test: Post-emergence Test, Amaranthus palmeri (AMAPA); parameters: key: 5=81-100%, 4=61-80%, 3=41-60%, 2=21-40%, 1=0-20% damage
Method in brief: as §1

SMILES	percentage damage caused to the plant, SETFA (five-point scale) (Setaria faberi (SETFA) [1]; 1000 g/ha)	percentage damage caused to the plant, ECHCG (five-point scale) ([3]; 1000 g/ha)	percentage damage caused to the plant, ZEAMX (five-point scale) (Zea mays (ZEAMX) [4]; 1000 g/ha)	percentage damage caused to the plant, IPOHE (five-point scale) ([6]; 1000 g/ha)	percentage damage caused to the plant, AMARE (five-point scale) ([9]; 1000 g/ha)	percentage damage caused to the plant, AMAPA (five-point scale) ([12]; 1000 g/ha)	percentage damage caused to the plant, SETFA (five-point scale) (Setaria faberi (SETFA) [1]; 250 g/Ha)	Pre-emergence Test SETFA, percentage damage caused to the plant (five-point scale) (Setaria faberi (SETFA) [2]; 1000 g/ha)	percentage damage caused to the plant, ECHCG (five-point scale) ([3]; 250 g/Ha)	percentage damage caused to the plant, ZEAMX (five-point scale) (Zea mays (ZEAMX) [4]; 250 g/Ha)	Pre-emergence Test ECHCG, percentage damage caused to the plant (five-point scale) ([5]; 1000 g/ha)	percentage damage caused to the plant, IPOHE (five-point scale) ([6]; 250 g/Ha)	Pre-emergence Test AMARE, percentage damage caused to the plant (five-point scale) ([7]; 1000 g/ha)	Pre-emergence Test ZEAMX, percentage damage caused to the plant (five-point scale) (Zea mays (ZEAMX) [8]; 1000 g/ha)	percentage damage caused to the plant, AMARE (five-point scale) ([9]; 250 g/Ha)	Pre-emergence Test AMAPA, percentage damage caused to the plant (five-point scale) ([10]; 1000 g/ha)	Pre-emergence Test IPOHE, percentage damage caused to the plant (five-point scale) ([11]; 1000 g/ha)	percentage damage caused to the plant, AMAPA (five-point scale) ([12]; 250 g/Ha)	other results
CCn1c(Cn2ccc(C(F)(F)F)n2)c(-c2ccc(Cl)cc2)c(=O)c(C(=O)O)c1-c1ccc(Cl)c(Cl)c1 [Compound 21, 5-(4-chlorophenyl)-2-(3,4-dichlorophenyl)-1-ethyl-4-oxo-6-[[3-(trifluoromethyl)pyrazol-1-yl]methyl]pyridine-3-carboxylic acid]	0	0	1 (1=0-20%)	3 (3=41-60%)	1 (1=0-20%)	2 (2=21-40%)													Pre-emergence Test SETFA, percentage damage caused to the plant (five-point scale) (Setaria faberi (SETFA) [2]; 250 g/Ha (*)): 0; Pre-emergence Test ECHCG, percentage damage caused to the plant (five-point scale) ([5]; 250 g/Ha (*)): 0; Pre-emergence Test AMARE, percentage damage caused to the plant (five-point scale) ([7]; 250 g/Ha (*)): 0; Pre-emergence Test ZEAMX, percentage damage caused to the plant (five-point scale) (Zea mays (ZEAMX) [8]; 250 g/Ha (*)): 0; Pre-emergence Test AMAPA, percentage damage caused to the plant (five-point scale) ([10]; 250 g/Ha (*)): 0; Pre-emergence Test IPOHE, percentage damage caused to the plant (five-point scale) ([11]; 250 g/Ha (*)): 1 (1=0-20%)
CCOC(=O)c1c(-c2cccc(Cl)c2)n(CC)c(Cn2ccc(C(F)(F)F)n2)cc1=O [Compound 26, ethyl 2-(3-chlorophenyl)-1-ethyl-4-oxo-6-[[3-(trifluoromethyl)pyrazol-1-yl]methyl]pyridine-3-carboxylate]	1 (1=0-20%)	1 (1=0-20%)	2 (2=21-40%)	3 (3=41-60%)	1 (1=0-20%)	2 (2=21-40%)	1 (1=0-20%)	3 (3=41-60%)	1 (1=0-20%)	1 (1=0-20%)	2 (2=21-40%)	1 (1=0-20%)	0	1 (1=0-20%)	1 (1=0-20%)	0	0	1 (1=0-20%)	
CCn1c(Cn2cc(C)cn2)cc(=O)c(C(=O)O)c1-c1ccc(Cl)c(Cl)c1 [Compound 91, 2-(3,4-dichlorophenyl)-1-ethyl-6-[(4-methylpyrazol-1-yl)methyl]-4-oxo-pyridine-3-carboxylic acid]	1 (1=0-20%)	1 (1=0-20%)	1 (1=0-20%)	3 (3=41-60%)	2 (2=21-40%)	4 (4=61-80%)	0	0	3 (3=41-60%)	1 (1=0-20%)	0	0	1 (1=0-20%)	0	1 (1=0-20%)	1 (1=0-20%)	0	1 (1=0-20%)	
